Assays:
Format in all cases: cell-based
[1] = system: alpha-smooth muscle actin (α-SMA); experiment: Inhibition of TGF-β induced expression of alpha-smooth muscle actin in CFSC cells (western blot); conditions: compound at 10 μM, TGF-β (10 ng/mL), 24 hours
Outline: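 Rat CCl4-treated hepatic stellate (CFSC) cells in serum-free DMEM were given compound at 10 μM plus TGF-β 10 ng/mL for 24 h at 37 °C. α-SMA measured by western blot with β-actin, bands quantified densitometrically. Percent inhibition is the decrease in band intensity versus TGF-β alone.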

SW480 (colon cancer) = experiment: Antiproliferative activity, CCK-8 cell viability; conditions: Homo sapiens, 72 h, read-out: Inhibition of Cancerous Cells, SW480; for inhibition at 3.3 µM: compound concentration of 3.3 μM; for inhibition at 10 µM: compound concentration of 10 μM; for inhibition at 30 µM: compound concentration of 30 μM
Outline: (§1)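 Cells in DMEM with 10% FBS were treated with compound at 3.3, 10 or 30 μM for 72 h at 37°C. Viability was read by CCK-8 absorbance at 450 nm and expressed relative to DMSO-treated cells. Growth inhibition was binned as ≥50%, 30–50% or <30%.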

HepG2 (liver cancer) = experiment: Antiproliferative activity, CCK-8 cell viability; conditions: Homo sapiens, 72 h, read-out: Inhibition of Cancerous Cells, HepG2; for inhibition at 3.3 µM: compound concentration of 3.3 μM; for inhibition at 10 µM: compound concentration of 10 μM; for inhibition at 30 µM: compound concentration of 30 μM
Outline: as §1

HeLa (cervical cancer) = experiment: Antiproliferative activity, CCK-8 cell viability; conditions: Homo sapiens, 72 h, read-out: Inhibition of Cancerous Cells, HELA; for inhibition at 3.3 µM: compound concentration of 3.3 μM; for inhibition at 10 µM: compound concentration of 10 μM; for inhibition at 30 µM: compound concentration of 30 μM
[2] = system: MDA-MB-231 (breast cancer); experiment: Antiproliferative activity, CCK-8 cell viability; conditions: Homo sapiens, 72 h, read-out: Inhibition of Cancerous Cells, MDA-MB-231; for inhibition at 3.3 µM: compound concentration of 3.3 μM; for inhibition at 10 µM: compound concentration of 10 μM; for inhibition at 30 µM: compound concentration of 30 μM
Outline: as §1

[3] = system: A431 (epidermoid carcinoma); experiment: Antiproliferative activity, CCK-8 cell viability; conditions: Homo sapiens, A-431, 72 h, read-out: Inhibition of Cancerous Cells, A431; for inhibition at 3.3 µM: compound concentration of 3.3 μM; for inhibition at 10 µM: compound concentration of 10 μM; for inhibition at 30 µM: compound concentration of 30 μM
Outline: as §1

[4] = system: B16F10 (malignant melanoma); experiment: Antiproliferative activity, CCK-8 cell viability; conditions: Mus musculus, B16-F10, 72 h, read-out: Inhibition of Cancerous Cells, B16F10; for inhibition at 3.3 µM: compound concentration of 3.3 μM; for inhibition at 10 µM: compound concentration of 10 μM; for inhibition at 30 µM: compound concentration of 30 μM
Outline: as §1

[5] = system: A549 (lung adenocarcinoma); experiment: Antiproliferative activity, CCK-8 cell viability; conditions: Homo sapiens, 72 h, read-out: Inhibition of Cancerous Cells, A549; for inhibition at 3.3 µM: compound concentration of 3.3 μM; for inhibition at 10 µM: compound concentration of 10 μM; for inhibition at 30 µM: compound concentration of 30 μM

Row | SMILES | inhibition at 10 µM [1] [%] | inhibition at 3.3 µM (SW480 (colon cancer)) [%] | inhibition at 10 µM (SW480 (colon cancer)) [%] | inhibition at 30 µM (SW480 (colon cancer)) [%] | inhibition at 3.3 µM (HepG2 (liver cancer)) [%] | inhibition at 10 µM (HepG2 (liver cancer)) [%] | inhibition at 30 µM (HepG2 (liver cancer)) [%] | inhibition at 3.3 µM (HeLa (cervical cancer)) [%] | inhibition at 10 µM (HeLa (cervical cancer)) [%] | inhibition at 30 µM (HeLa (cervical cancer)) [%] | inhibition at 3.3 µM [2] [%] | inhibition at 10 µM [2] [%] | inhibition at 30 µM [2] [%] | inhibition at 3.3 µM [3] [%] | inhibition at 10 µM [3] [%] | inhibition at 30 µM [3] [%] | inhibition at 3.3 µM [4] [%] | inhibition at 10 µM [4] [%] | inhibition at 30 µM [4] [%] | inhibition at 3.3 µM [5] [%] | other results
1 | CC1=C(CC(=O)O)c2cc(F)cc(F)c2/C1=C/c1cccc(Oc2ccccc2)c1 [Compound E7, 2-[(1E)-5,7-Difluoro-1-(3-(phenoxy)benzylidene)-2-methyl-1H-inden-3-yl]-acetic acid] | ≥ 80 | < 30 | ≥ 50 | ≥ 50 | ≥ 50 | ≥ 50 | ≥ 50 | 30 to 50 | ≥ 50 | ≥ 50 | ≥ 50 | ≥ 50 | ≥ 50 | 30 to 50 | ≥ 50 | ≥ 50 | ≥ 50 | ≥ 50 | ≥ 50 | < 30 | inhibition at 10 µM [5]: < 30%; inhibition at 30 µM [5]: ≥ 50%
2 | CC1=C(CC(=O)O)c2cc(F)ccc2/C1=C\c1cccc(CCc2ccccc2)c1 [Compound A17, 2-[(1Z)-5-Fluoro-2-methyl-1-{[3-(2-phenylethyl)phenyl]methylidene}-1H-inden-3-yl]acetic acid] | < 30 | ≥ 50 | ≥ 50 | ≥ 50 | ≥ 50 | ≥ 50 | ≥ 50 | 30 to 50 | ≥ 50 | ≥ 50 | ≥ 50 | ≥ 50 | ≥ 50 | < 30 | ≥ 50 | ≥ 50 | 30 to 50 | ≥ 50 | ≥ 50 | ≥ 50 | inhibition at 10 µM [5]: ≥ 50%; inhibition at 30 µM [5]: ≥ 50%
3 | COc1cccc2c1C(CC(=O)O)=C(C)/C2=C/c1ccc(COc2ccccc2)cc1 [Compound A11] | < 30 | ≥ 50 | ≥ 50 | ≥ 50 | 30 to 50 | ≥ 50 | ≥ 50 | < 30 | < 30 | < 30 | < 30 | 30 to 50 | ≥ 50 | ≥ 50 | ≥ 50 | ≥ 50 | ≥ 50 | ≥ 50 | ≥ 50 | 30 to 50 | inhibition at 10 µM [5]: 30 to 50%; inhibition at 30 µM [5]: 30 to 50%
4 | CC1=C(CC(=O)O)c2cc(F)ccc2/C1=C\c1ccc(CN(C)c2ccccc2)cc1 [Compound A9, 2-[(1Z)-5-Fluoro-2-methyl-1-[(4-{[methyl(phenyl)amino]methyl}phenyl)-methylidene]-1H-inden-3-yl]acetic acid] | ≥ 80 | ≥ 50 | ≥ 50 | ≥ 50 | < 30 | < 30 | ≥ 50 | < 30 | 30 to 50 | ≥ 50 | 30 to 50 | ≥ 50 | ≥ 50 | < 30 | ≥ 50 | ≥ 50 | ≥ 50 | ≥ 50 | ≥ 50 | ≥ 50 | inhibition at 10 µM [5]: ≥ 50%; inhibition at 30 µM [5]: ≥ 50%
5 | COc1cccc2c1C(CC(=O)O)=C(C)/C2=C/c1ccc(Oc2ccccc2)cc1 [Compound D28, 2-[(1Z)-4-Methoxy-1-(4-(phenoxy)benzylidene)-2-methyl-1H-inden-3-yl]-acetic acid] | 50 to 80 | ≥ 50 | ≥ 50 | ≥ 50 | ≥ 50 | ≥ 50 | ≥ 50 | < 30 | < 30 | < 30 | 30 to 50 | 30 to 50 | ≥ 50 | ≥ 50 | ≥ 50 | ≥ 50 | 30 to 50 | ≥ 50 | ≥ 50 | 30 to 50 | inhibition at 10 µM [5]: 30 to 50%; inhibition at 30 µM [5]: ≥ 50%
6 | CC1=C(CC(=O)O)c2c(F)cc(F)cc2/C1=C\c1cccc(Oc2ccccc2)c1 [Compound D21, 2-[(1Z)-4,6-Difluoro-1-(3-(phenoxy)benzylidene)-2-methyl-1H-inden-3-yl]-acetic acid] | ≥ 80 | 30 to 50 | ≥ 50 | ≥ 50 | 30 to 50 | 30 to 50 | ≥ 50 | < 30 | ≥ 50 | ≥ 50 | ≥ 50 | ≥ 50 | ≥ 50 | < 30 | 30 to 50 | ≥ 50 | ≥ 50 | ≥ 50 | ≥ 50 | 30 to 50 | inhibition at 10 µM [5]: ≥ 50%; inhibition at 30 µM [5]: ≥ 50%
7 | CC1=C(CC(=O)O)c2cc(F)ccc2/C1=C\c1cccc(COc2ccc(F)cc2)c1 [Compound A6, 2-[(1Z)-5-Fluoro-1-({3-[(4-fluorophenoxy)methyl]phenyl}methylidene)-2-methyl-1H-inden-3-yl]acetic acid] | ≥ 80 | < 30 | ≥ 50 | ≥ 50 | ≥ 50 | ≥ 50 | ≥ 50 | ≥ 50 | ≥ 50 | ≥ 50 | ≥ 50 | ≥ 50 | ≥ 50 | 30 to 50 | ≥ 50 | ≥ 50 | < 30 | 30 to 50 | ≥ 50 | < 30 | inhibition at 10 µM [5]: 30 to 50%; inhibition at 30 µM [5]: ≥ 50%
8 | CC1=C(CC(=O)O)c2cc(F)ccc2/C1=C\c1ccc(Oc2ccc(F)cc2)cc1C [Compound D14, 2-[(1Z)-1-{[2-Methyl-4-(4-fluorophenoxy)phenyl]methylidene}-5-fluoro-2-methyl-1H-inden-3-yl]acetic acid] | ≥ 80 | 30 to 50 | ≥ 50 | ≥ 50 | 30 to 50 | 30 to 50 | ≥ 50 | < 30 | 30 to 50 | ≥ 50 | 30 to 50 | ≥ 50 | ≥ 50 | 30 to 50 | ≥ 50 | ≥ 50 | ≥ 50 | ≥ 50 | ≥ 50 | 30 to 50 | inhibition at 10 µM [5]: ≥ 50%; inhibition at 30 µM [5]: ≥ 50%

Reference: US20240116845A1, “INDENE COMPOUNDS, PHARMACEUTICAL COMPOSITIONS THEREOF, AND THEIR THERAPEUTIC APPLICATIONS” (NucMito Pharmaceuticals Co., Ltd., priority 2021, published 2024)
